PubChem BioAssay AID248 (DTP/NCI, 2004)
Toxic doses and inconclusive results are not listed. No stated cut-off is given here; in the data, active means T/C of 150% or more; inactive means T/C below 125%.

Test system: L1210 leukemia ip in BDF1 mice, survival T/C
Test: NCI In Vivo Anticancer Drug Screen. Data for tumor model L1210 Leukemia (intraperitoneal) in B6D2F1 (BDF1) mice
Conditions: endpoint: mean survival time, higher = longer survival
In short: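 Ratio derived from survival: compound-dosed mice over vehicle-dosed mice, all bearing a transplantable tumor.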

[1] = dose: 100.0 mg/kg/injection, schedule: Q04DX002 (ip), vehicle: Klucel (hydroxypropylcellulose) (HPC)
[2] = dose: 200.0 mg/kg/injection, schedule: Q04DX002 (ip), vehicle: Klucel (hydroxypropylcellulose) (HPC)
[3] = dose: 400.0 mg/kg/injection, schedule: Q04DX002 (ip), vehicle: Klucel (hydroxypropylcellulose) (HPC)
[4] = dose: 100.0 mg/kg/injection, schedule: Q04DX003 (ip), vehicle: Klucel (hydroxypropylcellulose) (HPC)
[5] = dose: 200.0 mg/kg/injection, schedule: Q04DX003 (ip), vehicle: Klucel (hydroxypropylcellulose) (HPC)
[6] = dose: 400.0 mg/kg/injection, schedule: Q04DX003 (ip), vehicle: Klucel (hydroxypropylcellulose) (HPC)
[7] = dose: 50.0 mg/kg/injection, schedule: Q01DX001 (ip), vehicle: saline
[8] = dose: 50.0 mg/kg/injection, schedule: Q04DX003 (ip), vehicle: Klucel (hydroxypropylcellulose) (HPC)
[9] = dose: 400.0 mg/kg/injection, schedule: Q01DX001 (ip), vehicle: saline
[10] = dose: 50.0 mg/kg/injection, schedule: Q01DX001 (ip), vehicle: Klucel (hydroxypropylcellulose) (HPC)
[11] = dose: 100.0 mg/kg/injection, schedule: Q01DX001 (ip), vehicle: Klucel (hydroxypropylcellulose) (HPC)
[12] = dose: 200.0 mg/kg/injection, schedule: Q01DX001 (ip), vehicle: Klucel (hydroxypropylcellulose) (HPC)
[13] = dose: 100.0 mg/kg/injection, schedule: Q01DX001 (ip), vehicle: saline
[14] = dose: 200.0 mg/kg/injection, schedule: Q01DX001 (ip), vehicle: saline
[15] = dose: 100.0 mg/kg/injection, schedule: Q04DX003 (ip), vehicle: saline with Tween-80
[16] = dose: 200.0 mg/kg/injection, schedule: Q04DX003 (ip), vehicle: saline with Tween-80
[17] = dose: 400.0 mg/kg/injection, schedule: Q04DX003 (ip), vehicle: saline with Tween-80
[18] = dose: 100.0 mg/kg/injection, schedule: Q01DX009 (ip), vehicle: Klucel (hydroxypropylcellulose) (HPC)
[19] = dose: 100.0 mg/kg/injection, schedule: Q04DX003 (ip), vehicle: saline
[20] = dose: 200.0 mg/kg/injection, schedule: Q04DX003 (ip), vehicle: saline
[21] = dose: 400.0 mg/kg/injection, schedule: Q04DX003 (ip), vehicle: saline

Measured: T/C

CCCc1nc2ccccc2c(=O)n1/N=C/c1ccc(Cl)cc1Cl
inactive: [1] 96 % of control | [2] 92 % of control | [3] 103 % of control

Cc1ccc(NC(=O)Nc2cc([N+](=O)[O-])ccc2F)cc1C
inactive: [4] 101 % of control | [5] 98 % of control | [6] 101 % of control

CCCCCCCCCCCCCCCCOc1ccc(C=Nc2ccc(C)cc2)cc1
inactive: [4] 103 % of control | [5] 97 % of control | [6] 104 % of control

CCCCCCCCCCCCC(C)(OO)C(=O)OC (centres undefined)
inactive: dose: 15.0 mg/kg/injection, schedule: Q04DX002 (ip), vehicle: saline with Tween-80 100 % of control | dose: 30.0 mg/kg/injection, schedule: Q04DX002 (ip), vehicle: saline with Tween-80 91 % of control | dose: 160.0 mg/kg/injection, schedule: Q04DX002 (ip), vehicle: saline with Tween-80 95 % of control

CCN(CC)Cc1cc(Nc2nc(/C=C/c3ccc(Cl)cc3)nc(Cl)c2-c2ccc(Cl)cc2)ccc1O
inactive: dose: 12.0 mg/kg/injection, schedule: Q01DX001 (ip), vehicle: saline 100 % of control | dose: 12.5 mg/kg/injection, schedule: Q04DX003 (ip), vehicle: Klucel (hydroxypropylcellulose) (HPC) 95 % of control | dose: 25.0 mg/kg/injection, schedule: Q01DX001 (ip), vehicle: saline 107 % of control | dose: 25.0 mg/kg/injection, schedule: Q04DX003 (ip), vehicle: Klucel (hydroxypropylcellulose) (HPC) 98 % of control | [7] 100 % of control | [8] 97 % of control

CCN(CC)C(=O)Nc1ccc([N+](=O)[O-])cc1
inactive: dose: 100.0 mg/kg/injection, schedule: Q01DX001 (ip), vehicle: carboxymethylcellulose (CMC) 97 % of control | [4] 109 % of control | dose: 200.0 mg/kg/injection, schedule: Q01DX001 (ip), vehicle: carboxymethylcellulose (CMC) 101 % of control | [5] 96 % of control | dose: 400.0 mg/kg/injection, schedule: Q01DX001 (ip), vehicle: carboxymethylcellulose (CMC) 97 % of control | [6] 107 % of control

O=S(=O)(O)NC1CCCCC1
inactive: dose: 25.0 mg/kg/injection, schedule: Q01DX009 (ip), vehicle: acetone 100 % of control | dose: 50.0 mg/kg/injection, schedule: Q01DX009 (ip), vehicle: acetone 100 % of control | dose: 100.0 mg/kg/injection, schedule: Q01DX009 (ip), vehicle: acetone 100 % of control | [9] 95 % of control | dose: 800.0 mg/kg/injection, schedule: Q01DX001 (ip), vehicle: saline 90 % of control | dose: 1200.0 mg/kg/injection, schedule: Q01DX001 (ip), vehicle: saline 86 % of control | dose: 1600.0 mg/kg/injection, schedule: Q01DX001 (ip), vehicle: saline 92 % of control

CCCS(=O)(=O)N1CCCCC1
inactive: [1] 102 % of control | [2] 94 % of control | [3] 102 % of control

CCOC(=O)NN(C)c1c(C)cccc1C
inactive: [10] 96 % of control | [11] 106 % of control | [12] 104 % of control

COC(=O)c1cc2ccccc2cc1OCC(=O)NCc1ccc(Cl)cc1
inactive: [10] 105 % of control | [11] 94 % of control | [12] 97 % of control

CC(c1ccc([N+](=O)[O-])cc1)n1cnc2c(N(CCO)CCO)ncnc21 (centres undefined)
inactive: [13] 104 % of control | [14] 103 % of control | [9] 103 % of control

O=[N+]([O-])c1ccc(O)c(CNCCCNCc2cc([N+](=O)[O-])ccc2O)c1
inactive: [13] 102 % of control | [14] 98 % of control | [9] 102 % of control

O=[N+]([O-])c1ccc(S(=O)(=O)Nc2ccccc2-c2ccccc2)cc1
inactive: dose: 100.0 mg/kg/injection, schedule: Q01DX009 (ip), vehicle: saline with Tween-80 96 % of control | [15] 91 % of control | dose: 200.0 mg/kg/injection, schedule: Q01DX009 (ip), vehicle: saline with Tween-80 98 % of control | [16] 91 % of control | dose: 400.0 mg/kg/injection, schedule: Q01DX009 (ip), vehicle: saline with Tween-80 96 % of control | [17] 86 % of control

C=C([Si](C)(C)C)[Si](C)(C)C
inactive: [15] 102 % of control | [16] 102 % of control | [17] 94 % of control

CCOC(=O)c1ccc(NC(=O)Sc2cccc(C)c2)cc1
inactive: [4] 93 % of control | [5] 97 % of control | [6] 96 % of control

CC/C(=C/c1ccc(OC)c(OC)c1)[N+](=O)[O-]
inactive: dose: 25.0 mg/kg/injection, schedule: Q01DX009 (ip), vehicle: Klucel (hydroxypropylcellulose) (HPC) 98 % of control | dose: 50.0 mg/kg/injection, schedule: Q01DX009 (ip), vehicle: Klucel (hydroxypropylcellulose) (HPC) 101 % of control | [8] 96 % of control | [18] 91 % of control | [4] 104 % of control

CCC(=O)Oc1c(CC=C(C)C)c(OC(=O)CC)c2ccccc2c1OC(=O)CC
inactive: [18] 93 % of control | [4] 90 % of control | dose: 200.0 mg/kg/injection, schedule: Q01DX009 (ip), vehicle: Klucel (hydroxypropylcellulose) (HPC) 93 % of control | [5] 94 % of control | dose: 400.0 mg/kg/injection, schedule: Q01DX009 (ip), vehicle: Klucel (hydroxypropylcellulose) (HPC) 88 % of control | [6] 96 % of control

CC(=O)N1CCc2c(O)cccc2C1
inactive: [19] 93 % of control | [20] 93 % of control | [21] 102 % of control

COc1ccc(CN2CCCN(Cc3ccc(OC)cc3OC)C2c2cc(Cl)cc(Cl)c2O)c(OC)c1
inactive: [7] 92 % of control | [13] 97 % of control | [14] 92 % of control | [9] 90 % of control

CC(O)CN1CCOCC1 (centres undefined)
inactive: [19] 100 % of control | [20] 97 % of control | [21] 107 % of control

COC(=O)CSC/C(=N\Nc1ccccc1)c1ccccc1
inactive: dose: 50.0 mg/kg/injection, schedule: Q04DX003 (ip), vehicle: saline 106 % of control | [13] 104 % of control | [19] 94 % of control | [14] 98 % of control | [20] 97 % of control | [9] 93 % of control | [21] 89 % of control

CC1CSC(=S)S1 (centres undefined)
inactive: [8] 102 % of control | [4] 107 % of control | [5] 104 % of control

Cc1ccc(C)c(N2CCN(c3ccncc3N)CC2)c1
inactive: dose: 75.0 mg/kg/injection, schedule: Q01DX001 (ip), vehicle: saline with Tween-80 98 % of control | dose: 75.0 mg/kg/injection, schedule: Q01DX009 (ip), vehicle: saline with Tween-80 95 % of control | dose: 150.0 mg/kg/injection, schedule: Q01DX001 (ip), vehicle: saline with Tween-80 93 % of control | dose: 150.0 mg/kg/injection, schedule: Q01DX009 (ip), vehicle: saline with Tween-80 102 % of control | dose: 300.0 mg/kg/injection, schedule: Q01DX001 (ip), vehicle: saline with Tween-80 101 % of control
